26 compounds from patent publication US20170334899A1, “AMINO-SUBSTITUTED ISOTHIAZOLES” (Bayer Pharma Aktiengesellschaft, priority 2014, published 2017) can be followed below.

In the assay the target is T1, catalytic domain of human Bub1 (amino acids 704-1085) (Homo sapiens, UniProt O43683).
T1 construct: catalytic domain of human Bub1 (amino acids 704-1085); His6 (N); made in house; host or cells: insect cells (Hi5)
T1 sequence (O43683 704-1085): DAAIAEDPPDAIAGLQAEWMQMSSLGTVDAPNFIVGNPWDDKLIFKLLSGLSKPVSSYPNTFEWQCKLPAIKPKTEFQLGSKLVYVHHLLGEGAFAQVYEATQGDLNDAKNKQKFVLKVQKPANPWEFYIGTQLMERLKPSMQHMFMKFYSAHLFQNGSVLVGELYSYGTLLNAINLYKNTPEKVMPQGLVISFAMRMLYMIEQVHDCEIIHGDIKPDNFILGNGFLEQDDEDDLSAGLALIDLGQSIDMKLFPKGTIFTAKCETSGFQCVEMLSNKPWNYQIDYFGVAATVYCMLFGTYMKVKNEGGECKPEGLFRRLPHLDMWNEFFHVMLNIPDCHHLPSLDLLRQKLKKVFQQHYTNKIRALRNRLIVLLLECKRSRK
Nature of the assay: Bub1 kinase assay (TR-FRET). The format is biochemical. The following applies: 10 μM ATP, avg, read-out: Bub1 avg (IC50 [mol/l]). A digest of the protocol: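 Readout is the 665/620 nm TR-FRET ratio from anti-phosphoserine antibody, Eu-labelled anti-mouse IgG and streptavidin-XL665, scaled between no-enzyme and uninhibited controls. Reaction: 1 μM biotinylated peptide, 10 μM ATP, 60 min, 22 °C, after 15 min compound preincubation with His6-Bub1 (704-1085, insect-expressed, ~200 ng/ml).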
(In general: Time-resolved FRET reads energy transfer from a long-lived donor to a nearby acceptor.)
In the case of `Cc1nsc(Nc2cnc(C(F)(F)F)cn2)c1C(=O)Nc1ccc(OCC2CCN(CC(F)(F)F)CC2(F)F)nc1` (centres unmarked) [Example 392, N-(6-{[3,3-difluoro-1-(2,2,2-trifluoroethyl)piperidin-4-yl]methoxy}pyridin-3-yl)-3-methyl-5-{[5-(trifluoromethyl)pyrazin-2-yl]amino}-1,2-thiazole-4-carboxamide], the IC50 was > 20 µM.
In the case of `Cc1nsc(Nc2cnc(C(F)(F)F)cn2)c1C(=O)Nc1ccc(OC2CCN(C(CF)CF)CC2)nc1` [Example 324, N-(6-{[1-(1,3-difluoropropan-2-yl)piperidin-4-yl]oxy}pyridin-3-yl)-3-methyl-5-{[5-(trifluoromethyl)pyrazin-2-yl]amino}-1,2-thiazole-4-carboxamide], the IC50 amounted to 19 µM.
For `Cc1nsc(Nc2cnc(C(F)(F)F)cn2)c1C(=O)Nc1ccc(CCC2CCN(CC(F)F)CC2)nc1` [Example 356, N-(6-{2-[1-(2,2-difluoroethyl)piperidin-4-yl]ethyl}pyridin-3-yl)-3-methyl-5-{[5-(trifluoromethyl)pyrazin-2-yl]amino}-1,2-thiazole-4-carboxamide] the value was > 20 µM; for `Cc1nsc(Nc2cnc(C(F)(F)F)cn2)c1C(=O)Nc1ccc(OCC2CCN(CCF)CC2)nc1` [Example 344, N-(6-{[1-(2-fluoroethyl)piperidin-4-yl]methoxy}pyridin-3-yl)-3-methyl-5-{[5-(trifluoromethyl)pyrazin-2-yl]amino}-1,2-thiazole-4-carboxamide], ≥ 20 µM.
Under `Cc1nsc(Nc2cnc(C(F)(F)F)cn2)c1C(=O)Nc1ccc(F)c(OC[C@@H]2CCCN(CC(F)F)C2)c1` [Example 341, N-(3-{[(3R)-1-(2,2-difluoroethyl)piperidin-3-yl]methoxy}-4-fluorophenyl)-3-methyl-5-{[5-(trifluoromethyl)pyrazin-2-yl]amino}-1,2-thiazole-4-carboxamide] stands > 20 µM.
On to `Cc1nsc(Nc2cnc(C(F)(F)F)cn2)c1C(=O)Nc1ccc(OCC2CCCN(CCF)C2)nc1` (centres unmarked) [Example 325, N-(6-{[1-(2-fluoroethyl)piperidin-3-yl]methoxy}pyridin-3-yl)-3-methyl-5-{[5-(trifluoromethyl)pyrazin-2-yl]amino}-1,2-thiazole-4-carboxamide], for which the IC50 is ≥ 20 µM.
Consider `Cc1nsc(Nc2cnc(C(F)(F)F)cn2)c1C(=O)Nc1ccc(O[C@@H]2CCN(CC(F)F)C2)nc1` [Example 379, N-(6-{[(3R)-1-(2,2-difluoroethyl)pyrrolidin-3-yl]oxy}pyridin-3-yl)-3-methyl-5-{[5-(trifluoromethyl)pyrazin-2-yl]amino}-1,2-thiazole-4-carboxamide], for which the IC50 was ≥ 20 µM.
Take `Cc1nsc(Nc2cnc(C(F)(F)F)cn2)c1C(=O)Nc1ccc(F)c(OC[C@@H]2CCN(CC(F)(F)F)C2)c1` [Example 339, N-(4-fluoro-3-{[(3R)-1-(2,2,2-trifluoroethyl)pyrrolidin-3-yl]methoxy}phenyl)-3-methyl-5-{[5-(trifluoromethyl)pyrazin-2-yl]amino}-1,2-thiazole-4-carboxamide]: the IC50 is > 20 µM.
As for `Cc1nsc(Nc2cnc(C(F)(F)F)cn2)c1C(=O)Nc1ccc(OCCCN(C)CCF)nc1` [Example 352, N-(6-{3-[(2-fluoroethyl)(methyl)amino]propoxy}pyridin-3-yl)-3-methyl-5-{[5-(trifluoromethyl)pyrazin-2-yl]amino}-1,2-thiazole-4-carboxamide], the IC50 is 19 µM.
Consider `Cc1nsc(Nc2cnc(C(F)(F)F)cn2)c1C(=O)Nc1ccc(N2CCN(CCC(F)(F)F)CC2)cn1` [Example 374, 3-methyl-5-{[5-(trifluoromethyl)pyrazin-2-yl]amino}-N-{5-[4-(3,3,3-trifluoropropyl)piperazin-1-yl]pyridin-2-yl}-1,2-thiazole-4-carboxamide], for which the IC50 is > 20 µM.
In the case of `Cc1nsc(Nc2cnc(C(F)(F)F)cn2)c1C(=O)Nc1ccc(O[C@@H]2CCN(CCC(F)(F)F)C2)nc1` [Example 381, 3-methyl-5-{[5-(trifluoromethyl)pyrazin-2-yl]amino}-N-(6-{[(3R)-1-(3,3,3-trifluoropropyl)pyrrolidin-3-yl]oxy}pyridin-3-yl)-1,2-thiazole-4-carboxamide], the IC50 is > 20 µM.
Regarding `CCCN1CC[C@@H](Oc2ccc(NC(=O)c3c(C)nsc3Nc3cnc(C(F)(F)F)cn3)cn2)[C@H](F)C1` [Example 371, N-(6-{[(3R,4R)-3-fluoro-1-propylpiperidin-4-yl]oxy}pyridin-3-yl)-3-methyl-5-{[5-(trifluoromethyl)pyrazin-2-yl]amino}-1,2-thiazole-4-carboxamide], the IC50 is > 20 µM.
For `Cc1nsc(Nc2cnc(C(F)(F)F)cn2)c1C(=O)Nc1ccc(O[C@H]2CCN(CCC(F)(F)F)C2)nc1` [Example 384, 3-methyl-5-{[5-(trifluoromethyl)pyrazin-2-yl]amino}-N-(6-{[(3S)-1-(3,3,3-trifluoropropyl)pyrrolidin-3-yl]oxy}pyridin-3-yl)-1,2-thiazole-4-carboxamide] the value was ≥ 20 µM.
Under `Cc1nsc(Nc2cnc3ccccc3n2)c1C(=O)Nc1ccc(OC2CCCN(CC(F)F)C2)nc1` (centres unmarked) [Example 33, N-(6-{[1-(2,2-Difluoroethyl)piperidin-3-yl]oxy}pyridin-3-yl)-3-methyl-5-(quinoxalin-2-ylamino)-1,2-thiazole-4-carboxamide] stands ≥ 20 µM; under `Cc1nsc(Nc2cncc(C(F)(F)F)n2)c1C(=O)Nc1ccc(F)c(OC2CCN(CCC(F)(F)F)CC2)c1` [Example 343, N-(4-fluoro-3-{[1-(3,3,3-trifluoropropyl)piperidin-4-yl]oxy}phenyl)-3-methyl-5-{[6-(trifluoromethyl)pyrazin-2-yl]amino}-1,2-thiazole-4-carboxamide], ≥ 20 µM.
For `Cc1nsc(Nc2cnc(C(F)(F)F)cn2)c1C(=O)Nc1ccc(OC2CCCN(C(CF)CF)C2)nc1` (centres unmarked) [Example 333, N-(6-{[1-(1,3-difluoropropan-2-yl)piperidin-3-yl]oxy}pyridin-3-yl)-3-methyl-5-{[5-(trifluoromethyl)pyrazin-2-yl]amino}-1,2-thiazole-4-carboxamide] the value was ≥ 20 µM.
As to `Cc1nsc(Nc2cnc(C(F)(F)F)cn2)c1C(=O)Nc1ccc(F)c(OC[C@H]2CCN(CC(F)F)C2)c1` [Example 397, N-(3-{[(3S)-1-(2,2-difluoroethyl)pyrrolidin-3-yl]methoxy}-4-fluorophenyl)-3-methyl-5-{[5-(trifluoromethyl)pyrazin-2-yl]amino}-1,2-thiazole-4-carboxamide], the IC50 is > 20 µM.
Under `Cc1nsc(Nc2cnc(C(F)(F)F)cn2)c1C(=O)Nc1ccc(C2CCN(CC(F)F)CC2)nc1` [Example 357, N-{6-[1-(2,2-difluoroethyl)piperidin-4 yl]pyridin-3-yl}-3-methyl-5-{[5-(trifluoromethyl)pyrazin-2-yl]amino}-1,2-thiazole-4-carboxamide] stands > 20 µM.
For `Cc1nsc(Nc2cnc(C(F)(F)F)cn2)c1C(=O)Nc1ccc(N2CCN(CC(F)F)CC2)cn1` [Example 372, N-{5-[4-(2,2-difluoroethyl)piperazin-1-yl]pyridin-2-yl}-3-methyl-5-{[5-(trifluoromethyl)pyrazin-2-yl]amino}-1,2-thiazole-4-carboxamide], the IC50 was > 20 µM.
Under `Cc1nsc(Nc2cnc(C(F)(F)F)cn2)c1C(=O)Nc1ccc(F)c(OC[C@@H]2CCCN(CC(F)(F)F)C2)c1` [Example 342, N-(4-fluoro-3-{[(3R)-1-(2,2,2-trifluoroethyl)piperidin-3-yl]methoxy}phenyl)-3-methyl-5-{[5-(trifluoromethyl)pyrazin-2-yl]amino}-1,2-thiazole-4-carboxamide] stands > 20 µM; under `Cc1nsc(Nc2cnc(C(F)(F)F)cn2)c1C(=O)Nc1ccc(O[C@H]2CCN(CCC(F)(F)F)C[C@@H]2F)nc1` [Example 364, N-(6-{[(3S,4S)-3-fluoro-1-(3,3,3-trifluoropropyl)piperidin-4-yl]oxy}pyridin-3-yl)-3-methyl-5-{[5-(trifluoromethyl)pyrazin-2-yl]amino}-1,2-thiazole-4-carboxamide], > 20 µM; under `Cc1nsc(Nc2cnc(C(F)(F)F)cn2)c1C(=O)Nc1ccc(OC[C@@H]2CCCN(CC(F)(F)F)C2)nc1` [Example 376, 3-methyl-N-(6-{[(3R)-1-(2,2,2-trifluoroethyl)piperidin-3-yl]methoxy}pyridin-3-yl)-5-{[5-(trifluoromethyl)pyrazin-2-yl]amino}-1,2-thiazole-4-carboxamide], > 20 µM.
Consider `Cc1nsc(Nc2cnc(C(F)(F)F)cn2)c1C(=O)Nc1ccc(C2CCN(CC(F)(F)F)CC2)nc1` [Example 358, 3-methyl-N-{6-[1-(2,2,2-trifluoroethyl)piperidin-4-yl]pyridin-3-yl}-5-{[5-(trifluoromethyl)pyrazin-2-yl]amino}-1,2-thiazole-4-carboxamide], for which the IC50 was > 20 µM.
Under `Cc1nsc(Nc2cnc(C(F)(F)F)cn2)c1C(=O)Nc1ccc(F)c(OCC2CCCN(CCF)C2)c1` (centres unmarked) [Example 336, N-(4-fluoro-3-{[1-(2-fluoroethyl)piperidin-3-yl]methoxy}phenyl)-3-methyl-5-{[5-(trifluoromethyl)pyrazin-2-yl]amino}-1,2-thiazole-4-carboxamide] stands ≥ 20 µM; under `Cc1nsc(Nc2cnc(C(F)(F)F)cn2)c1C(=O)Nc1ccc(O[C@@H]2CCN(CCC(F)(F)F)C[C@H]2F)nc1` [Example 368, N-(6-{[(3R,4R)-3-fluoro-1-(3,3,3-trifluoropropyl)piperidin-4-yl]oxy}pyridin-3-yl)-3-methyl-5-{[5-(trifluoromethyl)pyrazin-2-yl]amino}-1,2-thiazole-4-carboxamide], > 20 µM.
For `Cc1nsc(Nc2cnc(C(F)(F)F)cn2)c1C(=O)Nc1ccc(F)c(OCC2CCCN(CC(F)F)C2)c1` (centres unmarked) [Example 334, N-(3-{[1-(2,2-difluoroethyl)piperidin-3-yl]methoxy}-4-fluorophenyl)-3-methyl-5-{[5-(trifluoromethyl)pyrazin-2-yl]amino}-1,2-thiazole-4-carboxamide] the value was ≥ 20 µM.
